Reference: PubChem BioAssay AID1159558 (GlaxoSmithKline (GSK), 2015)
Activity calls are given as the source filed them.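 The calls were made as follows: active = IC50 against T. cruzi CYP51 below a set limit; inactive = the rest.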

Biological target: Sterol 14-alpha demethylase (Trypanosoma cruzi (strain CL Brener)) (UniProt Q7Z1V1)
Experiment: T. cruzi sterol 14-alpha demethylase inhibition – biochemical, recombinant enzyme, mechanism study for T. cruzi antiparasitic project, dose response (AID 1159558);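 also: enzyme in bacterial membranes with Anopheles gambiae CYP reductase and cytochrome b5 partners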
Settings: recombinant T. cruzi CYP51, BOMCC fluorescence

Sequence of Sterol 14-alpha demethylase (Trypanosoma cruzi (strain CL Brener)) (Q7Z1V1 whole entry, looked up): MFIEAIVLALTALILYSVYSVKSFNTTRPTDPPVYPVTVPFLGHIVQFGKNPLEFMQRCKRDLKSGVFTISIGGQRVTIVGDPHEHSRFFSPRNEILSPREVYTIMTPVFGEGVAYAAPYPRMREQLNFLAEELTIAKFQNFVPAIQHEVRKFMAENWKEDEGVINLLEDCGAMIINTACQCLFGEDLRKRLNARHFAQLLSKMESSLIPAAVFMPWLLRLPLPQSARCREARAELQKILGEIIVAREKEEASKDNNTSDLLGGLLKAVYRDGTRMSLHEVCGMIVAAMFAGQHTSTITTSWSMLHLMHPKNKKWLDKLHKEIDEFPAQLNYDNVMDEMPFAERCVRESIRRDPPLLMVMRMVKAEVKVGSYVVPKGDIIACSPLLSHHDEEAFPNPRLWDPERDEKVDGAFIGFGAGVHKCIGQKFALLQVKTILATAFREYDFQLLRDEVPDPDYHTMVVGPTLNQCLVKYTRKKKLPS

| Structure (SMILES) | IC50 |
| --- | --- |
| COc1cnc2ccc(=O)n(CCN3CCC(NC(=O)c4ccc(Cl)cc4)CC3)c2c1 | 10 µM |
| COc1ccc(C(=O)Nc2ccc(NC(=O)CO)cc2)cc1 | > 100 µM (inactive) |
| O=C(Nc1nc2ccccc2[nH]1)c1c(O)c2cccc3c2n(c1=O)CC3 | > 100 µM (inactive) |
| O=C(Nc1nc(-c2ccccn2)cs1)c1ccc(S(=O)(=O)N2CCCCC2)cc1 | 6.3 µM |
| COc1ccc(-c2csc(NC(=O)c3ccc([N+](=O)[O-])s3)n2)cc1OC | > 100 µM (inactive) |
| O=c1ccc2ccc(F)c3c2n1C[C@H]3CN1CCC(NCc2cc3ccccc3o2)CC1 | 32 µM |
| O=C(NCC(c1cccs1)N1CCOCC1)c1ccc([N+](=O)[O-])o1 (configuration not stated) | 10 µM |
| Cc1[nH]n2c(=O)c3c(nc2c1-c1ccc(F)cc1)CCCC3 | > 100 µM (inactive) |
| COc1ccc(S(=O)(=O)Nc2ccc(C(=O)Nc3nc(-c4ccccn4)cs3)cc2)cc1 | 0.4 µM |
| O=C1CSC(c2cccnc2)N1c1ccc(Cl)cc1Cl (configuration not stated) | 0.16 µM |
| N#CN1CC[C@@H](NC(=O)Nc2ccccc2Oc2ccccc2)C1 | > 100 µM (inactive) |
| O=c1[nH]ccc2ccc(-c3ccncc3)cc12 | 0.016 µM |
| O=C1CN(Cc2ccco2)C2CS(=O)(=O)CC2N1c1ccc(Cl)cc1 (configuration not stated) | > 100 µM (inactive) |
| CC(C)c1nn(-c2nc(N)nc(-c3ccccn3)n2)c(N)c1C1CCCCC1 | 3.2 µM |
| Cc1cc(Br)cc(C(=O)c2c(C(C)C)c(=O)[nH]c(=O)n2Cc2ccnc(N)c2)c1 | 0.016 µM |
| Cc1cc(C)n(-c2nc(NC(C)C)nc(NC(C)(C)C)n2)n1 | > 100 µM (inactive) |
| Cc1ccc2c(c1)SC(C(=O)Nc1n[nH]c(-c3ccccn3)n1)C2 (configuration not stated) | > 100 µM (inactive) |
| CC(C)(C)Nc1nc(Nc2ccc3c(c2)CS(=O)(=O)C3)nc2[nH]ccc12 | 25 µM |
| O=C(NCCc1ccccc1Cl)c1cccn1-c1cccnc1 | 0.079 µM |
| N#Cc1ccc(S(=O)(=O)N2CCC3(CCN(c4ccccc4)C3=O)CC2)cc1 | > 100 µM (inactive) |
| CN(Cc1nc2c(C(=O)N3CCN(Cc4ccccc4)CC3)cccc2[nH]1)C1CCCc2cccnc21 (configuration not stated) | 40 µM |
| Oc1c(-c2n[nH]c(Cc3ccc(F)cc3)n2)ncc2cccnc12 | > 100 µM (inactive) |
| NC(=O)c1cc(F)ccc1Nc1nc(NC2CCC(O)CC2)ncc1Cl (configuration not stated) | 32 µM |
| COCc1cc(Nc2ccc(Cl)cc2)nc(-c2ccccn2)n1 | > 100 µM (inactive) |
| Cc1ccccc1CNc1cc(C2CC2)nc(-c2nccn2C)n1 | 16 µM |
| CC1CCCN(S(=O)(=O)c2ccc(C(=O)Nc3nc(-c4ccccn4)cs3)cc2)C1 (configuration not stated) | 2.5 µM |

| Structure (SMILES) | IC50 |
| --- | --- |
| NC(=O)c1cc(NC(=O)c2ccccc2COc2ccccc2)ccc1Cl | 79 µM |
| C=CC[C@@H]1CC=C[C@@H](C)N1C(=O)CCc1nnc(-c2ccc3c(c2)OCO3)o1 | 40 µM |
| COc1ccc(-c2cnc(NC(=O)c3cc(-c4ccccn4)n[nH]3)n2C)cc1 | 16 µM |
| CNc1nc(C)nc(N2CCc3cc(C(=O)NCc4ccc(-c5ccn[nH]5)cc4Cl)ccc32)n1 | 5 µM |
| O=C(NCc1ccc(-n2cccc2)cc1)c1nc(Cn2ccc([N+](=O)[O-])n2)no1 | > 100 µM (inactive) |
| CCC(=O)Nc1ccc(-c2nc3ccc(Cl)cc3[nH]2)cc1 | > 100 µM (inactive) |
| CNC(=O)C1Cc2ccccc2N1C(=O)Cc1ccc(OC)cc1 (configuration not stated) | > 100 µM (inactive) |
| Cc1cc(Nc2cc(C3CC3)[nH]n2)nc(N2CCC[C@H]2C(N)=O)n1 | > 100 µM (inactive) |
| Cc1cc2nc(CN(C)Cc3ncccc3C)[nH]c2cc1C | 79 µM |
| N#Cc1cccc(Nc2nccc(N3CCC(NS(=O)(=O)c4cccc(C#N)c4)CC3)n2)c1 | 7.9 µM |
| COc1cc(C(C)C)c(S(C)(=O)=O)cc1C(=O)N1CCN(c2ccccc2Cl)CC1 | > 100 µM (inactive) |
| CCS(=O)(=O)Nc1ccc(C2=NN(C(=O)c3cccs3)C(c3ccccc3OC)C2)cc1 (configuration not stated) | 25 µM |
| COc1ccc2nccc([C@H](O)CN3CC[C@H](NC(=O)c4ccc(Br)cc4)[C@@H](O)C3)c2n1 | 6.3 µM |
| CN(C)S(=O)(=O)c1cccc(C(=O)Nc2nc(-c3ccccn3)cs2)c1 | 32 µM |
| CN(Cc1ccc(F)cc1)c1ccc(OCC(=O)N2CCCCC2c2cccnc2)nn1 (configuration not stated) | 0.05 µM |
| CN1C(=O)c2ccccc2Sc2ccc(NC(=O)NCc3ccco3)cc21 | 32 µM |
| O=C(NC1C(=O)N(c2ccccc2)C1c1cccnc1)c1ccc(Cl)s1 (configuration not stated) | 0.2 µM |
| CN(C)c1ccc(N)cc1CN(CC1CCCO1)S(C)(=O)=O (configuration not stated) | > 100 µM (inactive) |
| CCCCn1nnnc1CSc1nc(C)cc(C)c1C#N | 50 µM |
| O=C1CN(C2CCCc3c(OCc4ccncc4)cccc32)C(=O)N1C1CCCCC1 (configuration not stated) | 0.02 µM |
| COC(=O)c1ccc(-c2cnc3ccc(NCc4ccccn4)nn23)cc1 | 1.3 µM |
| COCCn1c(-c2ccc3c(c2)OCO3)cnc1NCc1ccccc1OC | 5 µM |
| O=C(CSc1ccc(-c2ccccn2)nn1)Nc1ccc(Cl)cc1 | > 100 µM (inactive) |
| O=C(CN1CCN(S(=O)(=O)c2cccc([N+](=O)[O-])c2)CC1)Nc1ccc(Oc2ccccc2)cc1 | 2.5 µM |
| O=C(Nc1ccc(-c2nc3ccccc3c(=O)[nH]2)cc1)c1cccs1 | > 100 µM (inactive) |
| CC(C)(C)C(=O)Nc1cc(C2CC2)nn1-c1nc2c(c(=O)[nH]1)CCCC2 | > 100 µM (inactive) |

| Structure (SMILES) | IC50 |
| --- | --- |
| Cc1ncsc1CNc1cnc(-c2ccc3c(c2)OCCO3)c(-c2cnn(C)c2)c1 | 7.9 µM |
| COc1cc(C2SCC(=O)Nc3c2c(C)nn3-c2nc3ccccc3s2)cc(OC)c1O (configuration not stated) | 5 µM |
| CC(C)(C)Nc1nc(-c2ccccn2)nc2ccccc12 | > 100 µM (inactive) |
| Cc1ccc(C)c(CN2C(=O)NC3(CCc4ccccc43)C2=O)c1 (configuration not stated) | 40 µM |
| COc1ccccc1CNc1cc(C2CC2)nc(-c2nccn2C)n1 | 20 µM |
| CS(=O)(=O)c1ccc(CC(=O)Nc2nc(-c3ccc(Cl)s3)cs2)cc1 | > 100 µM (inactive) |
| CC(=Cc1ccccc1)CN1CCC(=O)N(Cc2cccnc2)CC1 | 0.1 µM |
| CS(=O)(=O)c1cccc(-c2cnc(N)c3c(-c4ccc(CO)cc4)csc23)c1 | 3.2 µM |
| O=C(Nc1nc2ccccc2[nH]1)c1ccc2nc[nH]c2c1 | 5 µM |
| O=S(=O)(c1cccc(CSc2nnc(-c3ccc4c(c3)OCO4)o2)c1)N1CCOCC1 | 13 µM |
| Cc1ccccc1CNC(=O)CN(Cc1ccccn1)Cc1ccccn1 | 100 µM |
| Cc1ccc(S(=O)(=O)Nc2ccc(CN3CCN(C(=O)c4cccc(C#N)c4)CC3)cc2)cc1 | > 100 µM (inactive) |
| COc1ccc2ncc(F)c(CCN3CC[C@@H](NC(=O)c4cc5c(s4)CCC5)[C@@H](O)C3)c2n1 | 1.3 µM |
| Cc1nc2c(-c3nc(-c4ccc(N)cc4)n[nH]3)cccn2c1C | > 100 µM (inactive) |
| O=C(CSc1nnc2ccc(-c3ccc(F)cc3)nn12)N1CCCCC1 | > 100 µM (inactive) |
| COc1ccc(CN2C(=O)C(O)(CC(=O)c3ccncc3)c3cc(Br)ccc32)cc1OC (configuration not stated) | 0.5 µM |
| CCN(C)Cc1ccc(N2CCC(NS(=O)(=O)c3ccc4c(c3)CCO4)CC2)nc1 | > 100 µM (inactive) |
| CC(=O)Nc1ccc(-c2ccnc(Nc3cccc(C#N)c3)n2)cc1 | 25 µM |
| Cc1[nH]nc2c1C(c1ccc(OCc3ccccc3F)cc1)SCC(=O)N2 (configuration not stated) | > 100 µM (inactive) |
| CC(=O)Nc1nc(-c2cc(C)ccc2C)c(C)s1 | > 100 µM (inactive) |
| CNC(=O)C1Cc2ccccc2N1C(=O)Cc1ccc(F)cc1 (configuration not stated) | > 100 µM (inactive) |
| CC1=C(C(=O)Nc2ccc(Cl)cc2)C(c2ccncc2)n2ncc(C(=O)Nc3ccccc3)c2N1 (configuration not stated) | 0.13 µM |
| O=S(=O)(NCC(c1cccnc1)N1CCN(c2ccc(F)cc2)CC1)c1cccs1 (configuration not stated) | 0.04 µM |
| CCNc1cc(-c2ccccn2)nc(Nc2ccccc2)n1 | > 100 µM (inactive) |
| CNc1cncc(C2CCCN2C(=O)Cc2ccc3ccccc3c2)n1 (configuration not stated) | 0.1 µM |
| O=C(c1cccc(Nc2ncc(-c3ccc4c(c3)OCO4)cn2)c1)N1CCSC1 | 16 µM |

| Structure (SMILES) | IC50 |
| --- | --- |
| NS(=O)(=O)c1ccc(Nc2ncc3cccc(OC4CCNCC4)c3n2)cc1 | > 100 µM (inactive) |
| Cc1[nH]c2ccccc2c(=O)c1Cc1c(C)[nH]c2ccccc2c1=O | > 100 µM (inactive) |
| CS(=O)(=O)c1ccc(Nc2nccc(Nc3n[nH]c4ccc(F)cc34)n2)c(F)c1 | 40 µM |
| N#Cc1ccc(S(=O)(=O)N2CCN(Cc3cccc(-c4ccncc4)c3)CC2)cc1 | 0.079 µM |
| CN(C)Cc1cccc(Nc2nccc(-c3ccc(NCCN)c(C#N)c3)n2)c1 | 6.3 µM |
| CC(C)CC(=O)Nc1cc(C2CC2)nn1-c1nc2c(c(=O)[nH]1)CCCC2 | > 100 µM (inactive) |
| COc1ccc2ncc(Cl)c(CCN3CC[C@H](NCc4cc5c(cn4)OCS5)[C@@H](O)C3)c2n1 | 7.9 µM |
| Cc1cc(=O)n2nc(Oc3ccc(C#N)cc3Cl)sc2n1 | > 100 µM (inactive) |
| CCCCCNC(=O)c1c[nH]c2ccc(S(=O)(=O)N(C)c3ccc(OCC)cc3)cc2c1=O | 1.6 µM |
| CCCCn1c(=O)c2c(N)onc2n(CCCC)c1=O | 79 µM |
| Nc1nccc(-c2csc(Nc3ccc(Cl)cc3)n2)n1 | 1.3 µM |
| CCN(CC)S(=O)(=O)c1ccc(Cn2nc(C(=O)Nc3ccncn3)c3ccccc32)cc1 | 0.16 µM |
| Cc1nn(-c2nc3ccccc3[nH]2)c2c1C(c1ccc(O)cc1)CC(=O)N2 (configuration not stated) | 25 µM |
| Nc1ncnc2c1ncn2[C@@H]1O[C@H](CO)C[C@H]1O | > 100 µM (inactive) |
| O=C(NCc1nnc2n1CCCCC2)c1ccc(-c2ccc(F)cc2)o1 | 79 µM |
| c1ccc(Nc2nc(-c3ccccn3)cc(N3CCOCC3)n2)cc1 | > 100 µM (inactive) |
| Cc1nn(C2CCS(=O)(=O)C2)c(C)c1CN(C)C(=O)C=Cc1sc2ccccc2c1Cl (configuration not stated) | 0.032 µM |
| COc1cc(-c2nc(N3CCOCC3)sc2-c2ccnc(NC3CCOCC3)n2)ccc1Cl | > 100 µM (inactive) |
| CCCCN(C(=O)c1ccc(NC(=O)C(C)C)cc1)c1ccccc1 | 13 µM |
| COc1cc(NC(=O)Nc2cccc(CNC(=O)OC3CCCCC3)c2)ccc1-c1cnco1 | 25 µM |
| COc1ncc(-c2ccc3nccc(-c4ccncc4)c3c2)cc1NS(C)(=O)=O | 79 µM |
| O=C(NCCCn1cnc2ccccc21)c1ccc(NC(=O)c2ccco2)cc1 | 16 µM |
| Cc1ccc(NC(=O)c2ccnc(N3CCCC3)c2)cc1-c1ccsc1C(N)=O | 1.3 µM |
| O=C(CSc1ccc(F)cc1)N[C@@H](Cc1cnc[nH]1)C(=O)NCCc1ccccc1 | 0.079 µM |
